Laboratory results: ChEMBL document CHEMBL6115029, “Discovery of Daraxonrasib (RMC-6236), a Potent and Orally Bioavailable RAS(ON) Multi-selective, Noncovalent Tri-complex Inhibitor for the Treatment of Patients with Multiple RAS-Addicted Cancers” (J Med Chem, 2025)
≈ marks a conversion by molar mass, not a printed value. Calls of active or inactive are those of the source. The rule behind the calls is not given here.

What was measured:
[1] = tested on: HPAF-II; assay: Antitumor activity against human HPAF-II cells harboring wildtype KRAS/KRAS G12D mutant xenografted in female BALB/c mouse model assessed as reduction in tumor volume administered orally as once daily dose for 28 days; assay type: functional, cell-based; settings: dose 3-25 mg/kg, route po, time 28.0 day
[2] = tested on: PSN1; assay: Inhibition of ERK1/2 phosphorylation in human PSN1 cells harboring KRAS G12R mutant incubated for 4 hrs by AlphaLISA assay; assay type: cell-based
[3] = Tmax in male cynomolgus monkey at 10 mg/kg, po measured after 24 hrs by LC-MS/MS analysis; assay type: ADME, organism-based, Macaca fascicularis; settings: in vivo
[4] = tested on: MIA PaCa-2; assay: Antitumor activity against human MIA PaCa-2 cells harboring KRAS G12C/G12C mutant xenografted in female BALB/c mouse model assessed as reduction in tumor volume administered orally as once daily dose for 28 days; assay type: functional, cell-based; settings: dose 3-25 mg/kg, route po, time 28.0 day
[5] = tested on: ASPC1; assay: Cytotoxicity against human ASPC1 cells harboring KRAS G12D mutant cultured as 2D cells assessed as reduction in cell viability incubated for 120 hrs by CellTiter-Glo luminescence assay; assay type: functional, cell-based; settings: ASPC1, 120 h
[6] = tested on: CAPAN-1; assay: Cytotoxicity against human CAPAN-1 cells harboring KRAS G12V mutant cultured as 2D cells assessed as reduction in cell viability incubated for 120 hrs by CellTiter-Glo luminescence assay; assay type: functional, cell-based; settings: CAPAN-1, 120 h
[7] = Volume of distribution at steady state in male Beagle dog at 1 mg/kg, iv measured after 24 hrs by LC-MS/MS analysis; assay type: ADME, organism-based, Canis lupus familiaris; settings: in vivo, read-out: Vdss
[8] = Tmax in female BALB/c mouse at 10 mg/kg, po measured after 24 hrs by LC-MS/MS analysis; assay type: ADME, organism-based; settings: in vivo
[9] = tested on: NCI-H1975; assay: Cytotoxicity against human NCI-H1975 cells harboring wildtype KRAS cultured as 2D cells assessed as reduction in cell viability incubated for 120 hrs by CellTiter-Glo luminescence assay; assay type: functional, cell-based; settings: NCI-H1975, 120 h
[10] = Tmax in male Sprague-Dawley rat at 60 mg/kg, po measured after 24 hrs by LC-MS/MS analysis; assay type: ADME, organism-based; settings: in vivo
[11] = tested on: NCI-H441; assay: Antitumor activity against human NCI-H441 cells harboring wildtype KRAS/KRAS G12V mutant xenografted in female BALB/c nude mouse assessed as tumor regression at 25 mg/kg, po administered once daily for 28 days; assay type: functional, organism-based; settings: time 28.0 day
[12] = Clearance in male Beagle dog at 1 mg/kg, iv measured after 24 hrs by LC-MS/MS analysis; assay type: ADME, organism-based, Canis lupus familiaris; settings: in vivo
[13] = In vivo inhibition of MAPK signaling pathway in female BALB/c nude mouse xenografted with human MIA PaCa-2 cells harboring KRAS G12C/G12C mutant assessed as reduction in DUSP6 mRNA level in tumor at 10 mg/kg, po administered as single dose and measured after 8 hrs by qPCR analysis relative to control; assay type: functional
[14] = Kinetic solubility of compound in PBS at pH 7.4 measured after 5 hrs by UV analysis; assay type: physicochemical; settings: read-out: Kinetic_solubility
[15] = Inhibition of ERK1/2 phosphorylation in human CAPAN-1 cells harboring KRAS G12V mutant incubated for 4 hrs by AlphaLISA assay; assay type: cell-based; settings: CAPAN-1, 4 h
[16] = Efflux ratio of apparent permeability in human Caco-2 cells at 5 uM incubated for 2 hrs by LC-MS/MS analysis; assay type: ADME, cell-based
[17] = Half-life in male cynomolgus monkey at 10 mg/kg, po measured after 24 hrs by LC-MS/MS analysis; assay type: ADME, organism-based, Macaca fascicularis; settings: in vivo
[18] = Clearance in male Sprague-Dawley rat at 1 mg/kg, iv measured after 24 hrs by LC-MS/MS analysis; assay type: ADME, organism-based; settings: in vivo
[19] = tested on: A-375; assay: Cytotoxicity against human A-375 cells assessed as reduction in cell viability incubated for 120 hrs by CellTiter-Glo luminescence assay; assay type: functional, cell-based; settings: A-375, 120 h
[20] = Ratio of drug concentration in mouse blood to plasma at 10 uM measured upto 120 mins by LC-MS/MS analysis; assay type: ADME, cell-free
[21] = Inhibition of ERK1/2 phosphorylation in human ASPC1 cells harboring KRAS G12D mutant incubated for 4 hrs by AlphaLISA assay; assay type: cell-based; settings: ASPC1, 4 h
[22] = Inhibition of 6His-tagged KRAS G12D mutant(1 to 169 residues)/GST-tagged GMPPNP-bound BRAF RBD (155 to 229 reisudes)/Cyclophilin A (unknown origin) tri-complex protein-protein interaction incubated for 3 hrs by TR-FERT based disruption assay; parameters: species or system Homo sapiens
[23] = Inhibition of 6His-tagged wildtype KRAS (1 to 169 residues)/GST-tagged GMPPNP-bound BRAF RBD (155 to 229 reisudes)/Cyclophilin A (unknown origin) tri-complex protein-protein interaction incubated for 3 hrs by TR-FERT based disruption assay; parameters: species or system Homo sapiens
[24] = tested on: NCI-H358; assay: Cytotoxicity against human NCI-H358 cells harboring KRAS G12C mutant cultured as 2D cells assessed as reduction in cell viability incubated for 120 hrs by CellTiter-Glo luminescence assay; assay type: functional, cell-based; settings: NCI-H358, 120 h
[25] = molecular target: Voltage-gated inwardly rectifying potassium channel KCNH2 (Homo sapiens, UniProt Q12809); assay: Inhibition of human ERG; assay type: toxicity
[26] = Half-life in male Sprague-Dawley rat at 1 mg/kg, iv measured after 24 hrs by LC-MS/MS analysis; assay type: ADME, organism-based; settings: in vivo
[27] = tested on: HCT-116; assay: Inhibition of ERK1/2 phosphorylation in human HCT-116 cells harboring KRAS G13D mutant incubated for 4 hrs by AlphaLISA assay; assay type: cell-based
[28] = tested on: Hs 766; assay: Cytotoxicity against human Hs766T cells harboring KRAS Q61H mutant cultured as 2D cells assessed as inhibition of cell proliferation incubated for 120 hrs by CellTiter-Glo luminescence assay; assay type: functional, cell-based
[29] = Oral bioavailability in male Beagle dog at 5 mg/kg measured after 24 hrs by LC-MS/MS analysis; assay type: ADME, organism-based, Canis lupus familiaris; settings: in vivo
[30] = tested on: NCI-H1975; assay: Inhibition of ERK1/2 phosphorylation in human NCI-H1975 cells harboring wildtype KRAS incubated for 4 hrs by AlphaLISA assay; assay type: cell-based
[31] = tested on: Mus musculus; assay: In vivo inhibition of MAPK signaling pathway in female BALB/c nude mouse xenografted with human MIA PaCa-2 cells harboring KRAS G12C/G12C mutant assessed as reduction in DUSP6 mRNA level in tumor at 3 to 10 mg/kg, po administered as single dose and measured upto 48 hrs by qPCR analysis; assay type: functional, organism-based; settings: dose 3-10 mg/kg
[32] = Clearance in female BALB/c mouse plasma at 1 mg/kg, iv measured after 24 hrs by LC-MS/MS analysis; assay type: ADME, organism-based
[33] = Half-life in male Beagle dog at 5 mg/kg, po measured after 24 hrs by LC-MS/MS analysis; assay type: ADME, organism-based, Canis lupus familiaris; settings: in vivo
[34] = Half-life in male Sprague-Dawley rat at 60 mg/kg, po measured after 24 hrs by LC-MS/MS analysis; assay type: ADME, organism-based; settings: in vivo
[35] = Half-life in female BALB/c mouse at 10 mg/kg, po measured after 24 hrs by LC-MS/MS analysis; assay type: ADME, organism-based; settings: in vivo
[36] = molecular target: Voltage-dependent L-type calcium channel subunit alpha-1C (Homo sapiens, UniProt Q13936); assay: Inhibition of human Cav1.2; assay type: toxicity
[37] = Oral bioavailability in male Sprague-Dawley rat at 60 mg/kg measured after 24 hrs by LC-MS/MS analysis; assay type: ADME, organism-based; settings: in vivo

Voltage-gated inwardly rectifying potassium channel KCNH2, sequence (Q12809 whole entry): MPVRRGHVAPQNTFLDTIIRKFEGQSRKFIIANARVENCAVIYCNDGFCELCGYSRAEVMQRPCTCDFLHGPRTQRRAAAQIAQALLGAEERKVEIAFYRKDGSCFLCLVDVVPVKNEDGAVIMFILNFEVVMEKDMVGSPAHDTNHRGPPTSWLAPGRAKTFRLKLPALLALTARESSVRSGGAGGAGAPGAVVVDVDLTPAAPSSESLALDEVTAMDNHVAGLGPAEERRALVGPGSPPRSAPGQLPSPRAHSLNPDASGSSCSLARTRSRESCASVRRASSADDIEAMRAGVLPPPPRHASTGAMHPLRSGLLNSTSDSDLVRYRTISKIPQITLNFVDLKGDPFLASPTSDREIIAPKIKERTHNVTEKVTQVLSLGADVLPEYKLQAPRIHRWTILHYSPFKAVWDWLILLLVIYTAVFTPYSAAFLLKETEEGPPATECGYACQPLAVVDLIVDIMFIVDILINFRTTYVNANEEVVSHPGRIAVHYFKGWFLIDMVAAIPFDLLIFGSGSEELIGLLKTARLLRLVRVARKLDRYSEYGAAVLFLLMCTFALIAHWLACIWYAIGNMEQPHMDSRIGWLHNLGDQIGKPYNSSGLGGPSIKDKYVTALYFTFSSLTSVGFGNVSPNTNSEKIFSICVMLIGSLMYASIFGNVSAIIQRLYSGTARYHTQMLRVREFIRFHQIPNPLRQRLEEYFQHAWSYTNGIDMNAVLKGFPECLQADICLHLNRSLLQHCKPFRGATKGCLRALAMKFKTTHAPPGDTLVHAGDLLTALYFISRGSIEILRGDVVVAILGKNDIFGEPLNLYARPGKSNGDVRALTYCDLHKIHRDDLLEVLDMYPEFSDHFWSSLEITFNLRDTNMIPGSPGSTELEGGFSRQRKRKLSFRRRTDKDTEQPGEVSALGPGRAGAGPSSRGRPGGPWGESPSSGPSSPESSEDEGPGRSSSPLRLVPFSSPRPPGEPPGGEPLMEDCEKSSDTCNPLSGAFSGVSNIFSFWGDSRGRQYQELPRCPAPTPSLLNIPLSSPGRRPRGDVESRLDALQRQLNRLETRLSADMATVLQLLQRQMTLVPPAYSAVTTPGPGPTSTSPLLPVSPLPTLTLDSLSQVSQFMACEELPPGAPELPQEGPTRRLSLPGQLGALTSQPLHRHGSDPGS
Voltage-dependent L-type calcium channel subunit alpha-1C, sequence (Q13936 whole entry): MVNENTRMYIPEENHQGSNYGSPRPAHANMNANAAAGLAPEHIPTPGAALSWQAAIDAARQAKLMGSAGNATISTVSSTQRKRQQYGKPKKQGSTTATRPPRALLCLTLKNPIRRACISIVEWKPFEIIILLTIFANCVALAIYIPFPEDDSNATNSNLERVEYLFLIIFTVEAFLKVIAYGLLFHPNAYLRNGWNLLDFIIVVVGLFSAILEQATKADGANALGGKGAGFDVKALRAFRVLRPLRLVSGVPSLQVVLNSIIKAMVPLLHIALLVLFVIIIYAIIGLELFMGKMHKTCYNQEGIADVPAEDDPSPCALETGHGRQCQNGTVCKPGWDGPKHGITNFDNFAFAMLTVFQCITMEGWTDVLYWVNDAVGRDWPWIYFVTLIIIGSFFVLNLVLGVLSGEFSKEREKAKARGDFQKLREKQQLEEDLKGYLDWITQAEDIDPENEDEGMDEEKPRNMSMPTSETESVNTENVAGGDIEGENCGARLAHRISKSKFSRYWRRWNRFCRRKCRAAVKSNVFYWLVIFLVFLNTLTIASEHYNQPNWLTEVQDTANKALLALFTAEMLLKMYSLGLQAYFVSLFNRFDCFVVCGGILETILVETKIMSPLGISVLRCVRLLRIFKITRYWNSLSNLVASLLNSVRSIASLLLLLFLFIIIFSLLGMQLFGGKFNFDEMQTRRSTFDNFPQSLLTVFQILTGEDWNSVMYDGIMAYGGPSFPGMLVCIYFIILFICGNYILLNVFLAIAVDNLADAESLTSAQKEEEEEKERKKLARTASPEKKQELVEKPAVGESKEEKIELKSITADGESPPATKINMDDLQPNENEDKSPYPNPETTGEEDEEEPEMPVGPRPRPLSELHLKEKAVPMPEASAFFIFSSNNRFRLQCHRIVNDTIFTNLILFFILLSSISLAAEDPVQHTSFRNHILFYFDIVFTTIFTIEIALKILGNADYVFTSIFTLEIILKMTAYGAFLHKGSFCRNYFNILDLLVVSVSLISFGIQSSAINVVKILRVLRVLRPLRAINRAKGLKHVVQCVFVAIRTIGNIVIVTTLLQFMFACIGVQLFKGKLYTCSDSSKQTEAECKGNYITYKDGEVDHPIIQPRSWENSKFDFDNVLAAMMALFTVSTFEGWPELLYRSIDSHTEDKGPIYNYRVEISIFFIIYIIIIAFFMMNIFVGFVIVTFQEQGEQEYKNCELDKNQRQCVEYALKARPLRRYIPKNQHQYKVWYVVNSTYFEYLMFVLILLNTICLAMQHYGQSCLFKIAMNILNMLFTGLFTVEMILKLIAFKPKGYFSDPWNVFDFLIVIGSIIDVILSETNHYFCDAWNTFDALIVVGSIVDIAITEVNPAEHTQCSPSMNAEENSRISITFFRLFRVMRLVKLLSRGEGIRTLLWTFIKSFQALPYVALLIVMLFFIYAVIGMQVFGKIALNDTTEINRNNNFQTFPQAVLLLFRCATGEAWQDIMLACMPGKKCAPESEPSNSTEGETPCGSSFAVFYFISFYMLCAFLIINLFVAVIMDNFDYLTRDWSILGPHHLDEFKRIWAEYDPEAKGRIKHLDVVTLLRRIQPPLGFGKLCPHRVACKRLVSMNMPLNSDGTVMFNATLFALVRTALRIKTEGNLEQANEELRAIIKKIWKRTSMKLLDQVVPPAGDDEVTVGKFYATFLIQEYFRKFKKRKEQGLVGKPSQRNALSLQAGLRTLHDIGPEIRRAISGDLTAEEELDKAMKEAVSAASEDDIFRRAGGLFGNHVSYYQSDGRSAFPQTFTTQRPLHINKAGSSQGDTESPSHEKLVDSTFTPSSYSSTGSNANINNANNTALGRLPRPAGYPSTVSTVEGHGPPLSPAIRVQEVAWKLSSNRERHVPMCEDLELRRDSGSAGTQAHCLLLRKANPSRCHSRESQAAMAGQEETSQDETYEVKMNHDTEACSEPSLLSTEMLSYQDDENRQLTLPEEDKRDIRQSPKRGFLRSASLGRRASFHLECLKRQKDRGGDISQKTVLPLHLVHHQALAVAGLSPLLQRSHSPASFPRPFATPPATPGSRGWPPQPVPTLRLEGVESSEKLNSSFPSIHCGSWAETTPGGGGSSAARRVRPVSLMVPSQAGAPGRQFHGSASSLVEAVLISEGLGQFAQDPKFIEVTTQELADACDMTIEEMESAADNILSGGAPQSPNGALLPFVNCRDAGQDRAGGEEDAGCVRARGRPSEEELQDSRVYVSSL

- Tmax [3]: 3.7 h
- Vd [7]: 2.1 L/kg
- Tmax [8]: 1.7 h
- Tmax [10]: 4 h
- clearance [12]: 6.67 mL/min/kg
- solubility kinetic at 5 h [14]: 71 µM (≈ 57.6 µg/mL)
- EC50 [15]: 0.3 nM
- efflux ratio at 2 h, 5 µM [16]: 21
- half-life [17]: 4.6 h
- clearance [18]: 21.7 mL/min/kg
- blood plasma ratio at 2 h, 10 µM [20]: 1.1
- EC50 [21]: 3.6 nM
- IC50 [22]: 229 nM
- IC50 [23]: 92 nM
- half-life [26]: 1.7 h
- bioavailability [29]: 33%
- clearance [32]: 40 mL/min/kg
- half-life [33]: 5.3 h
- half-life [34]: 2.8 h
- half-life [35]: 2.4 h
- bioavailability [37]: 27%
SMILES: CCn1c(-c2cc(N3CCN(C)CC3)cnc2[C@H](C)OC)c2c3cc(ccc31)-c1csc(n1)C[C@H](NC(=O)[C@H]1C[C@@H]1C)C(=O)N1CCC[C@H](N1)C(=O)OCC(C)(C)C2
- Activity [1]: Dose-dependent-effect
- inhibition [2]: Active
- Activity [4]: Dose-dependent-effect
- EC50 [5]: 3.1 nM
- EC50 [6]: 1.3 nM
- EC50 [9]: 1.4 nM
- Activity [11]: Active
- inhibition in vivo at 10 mg/kg [13]: 95%
- EC50 [19]: 7210 nM
- EC50 [24]: 1 nM
- IC50 [25]: 8900 nM
- inhibition [27]: Active
- Activity [28]: Active
- inhibition [30]: Active
- inhibition [31]: Not active; Pathway Reactivation Observed
- IC50 [36]: > 30000 nM
